Assay results from ChEMBL document CHEMBL5543059, “Discovery of anti-inflammatory natural flavonoids: Diverse scaffolds and promising leads for drug discovery” (Eur J Med Chem, 2023).
Values belong to the compound of their own block, whether it stands above or below them.

Assays:
RAW264.7 [1] = experiment: Anti-neuroinflammatory activity in mouse RAW264.7 cells assessed as inhibition of LPS-induced NO production pre-incubated for 1 hr followed by LPS stimulation and measured after 24 hrs by Griess reagent based assay; type: functional, cell-based
[2] = Anti-inflammatory activity in carrageenan-induced human PBMC cells assessed as inhibition of IL-beta leakage at 10 uM measured for 24 hrs relative to control; type: functional; design: scale not given: the % may be the effect or the level left
RAW264.7 [3] = experiment: Antiinflammatory activity in mouse RAW264.7 cells assessed as decrease in LPS-induced IL-6 secretion after 24 hrs by ELISA method; type: functional, cell-based; conditions: RAW264.7, 24 h
B16-F10 = experiment: Anti-inflammatory activity in LPS-stimulated mouse B16-F10 cells assessed as reduction in TNFalpha production measured for 12 hrs by ELISA method; type: functional, cell-based; conditions: B16-F10, 12 h
THP-1 = experiment: Anti-inflammatory activity in LPS-stimulated human THP-1 cells assessed as reduction of TNFalpha measured for 12 hrs by ELISA method; type: functional, cell-based; conditions: THP-1, 12 h
BV-2 [4] = experiment: Antiinflammatory activity against mouse BV-2 cells assessed as reduction in LPS induced NO production measured for 24 hrs by Griess reagent based analysis; type: functional, cell-based; conditions: BV-2, 24 h
Macrophage = experiment: Anti-inflammatory activity in mouse macrophages extracted from abdominal activity assessed as inhibition of LPS-induced nitric oxide production; type: functional, cell-based
J774.A1 [5] = experiment: Anti-inflammatory activity in mouse J774.A1 macrophage cells assessed as reduction in LPS-induced TNF-alpha production; type: functional, cell-based
J774.A1 [6] = experiment: Antiinflammatory activity in LPS-induced mouse J774.A1 macrophage cells assessed as reduction in LPS-induced IL-1 beta level; type: functional, cell-based
BV-2 [7] = experiment: Anti-inflammatory activity in mouse BV-2 cells assessed as reduction in LPS-induced NO production pre-treated with compounds for 2 hrs followed by LPS-stimulation measured for 22 hrs by Griess reagent based analysis; type: functional, cell-based
BV-2 [8] = experiment: Antiinflammatory activity in mouse BV-2 cells assessed as reduction in LPS-induced NO production pre-treated with compound for 1 hr followed by LPS-stimulation and measured for 23 hrs by Griess reagent based analysis; type: functional, cell-based
RAW264.7 [9] = experiment: Anti-inflammatory activity in mouse RAW264.7 cells assessed as inhibition of LPS-induced nitric oxide production measured after 18 hrs by Griess assay; type: functional, cell-based; conditions: RAW264.7, 18 h
BV-2 [10] = experiment: Anti-inflammatory activity in mouse BV-2 cells assessed as reduction in LPS-induced NO production pretreated for 1 hr followed by LPS-stimulation and measured after 18 hrs by 2,3-diaminonaphthalene reagent based fluorescence analysis; type: functional, cell-based
Neutrophil [11] = experiment: Inhibition of fMLF/CB-induced human Neutrophil activation assessed as reduction in superoxide anion generation pre-incubated for 2 mins prior to CB induction for 3 mins followed by fMLF addition by spectrophotometric analysis; type: functional, cell-based
BV-2 [12] = experiment: Anti-inflammatory activity in mouse BV-2 cells assessed as inhibition of LPS-induced NO production preincubated with compound for 1 hrs followed by LPS stimulation and measured after 24 hrs by Griess reagent based assay; type: functional, cell-based
Mus musculus [13] = experiment: Antiinflammatory activity against TPA-induced CD-1 mouse ear edema model assessed as reduction in ear edema at 1 uM relative to control; type: functional; design: scale not given: the % may be the effect or the level left
Neutrophil [14] = experiment: Inhibition of fMLF/CB-induced human Neutrophil activation assessed as reduction in elastase release; type: functional, cell-based
Neutrophil [15] = experiment: Inhibition of fMLF/CB-induced human Neutrophil activation assessed as reduction in superoxide anion; type: functional, cell-based
Mus musculus [16] = experiment: Antiinflammatory activity against TPA-induced CD-1 mouse ear edema model assessed as reduction in ear edema at 0.25 mg/kg relative to control; type: functional; design: scale not given: the % may be the effect or the level left

IC50 (RAW264.7 [1]): 0.89 µM
Structure (SMILES): COc1ccc(-c2c(O)c3c(OC)c4c(OC)c(C(C)C)oc4c(OC)c3oc2=O)cc1OC

Structure (SMILES): COc1ccc(-c2cc(=O)c3c(O)c(OC)c(OC)c(O)c3o2)cc1OC
Activity [2]: 34.4%

IC50 (RAW264.7 [3]): 18 µM
Structure (SMILES): COc1cc2c(c(C)c1OC)O[C@H](c1cc(O)c(OC)c(O)c1)CC2

IC50 (B16-F10): 3.8 µM
IC50 (THP-1): 8.1 µM
Structure (SMILES): COc1c(OC)c(O)c2c(=O)cc(-c3ccc(O)cc3)oc2c1OC [XANTHOMICROL]

IC50 (RAW264.7 [1]): 0.89 µM
Structure (SMILES): COc1c2c(cc3oc(=O)c(-c4ccc(O)cc4)c(O)c13)OC(C)(C)C=C2

IC50 (BV-2 [4]): 29.1 µM
Structure (SMILES): Oc1cc(O)c2c(c1)O[C@@H](c1ccc(O)c(O)c1)[C@@H](O)C2 [(+)-EPICATECHIN]

IC50 (Macrophage): 2.06 µM
Structure (SMILES): COc1ccc(-c2coc3cc(OC)c(CC=C(C)C)c(OC)c3c2=O)cc1

Structure (SMILES): COc1cc2oc(-c3ccccc3)cc(=O)c2c(O)c1OC [MOSLOFLAVONE]
IC50 (J774.A1 [5]): 0.22 µM
IC50 (J774.A1 [6]): 6.4 µM

IC50 (BV-2 [7]): 2.26 µM
Structure (SMILES): CC(C)=CCc1cc(C(=O)/C=C/c2ccc(O)cc2O)c(O)cc1O

IC50 (RAW264.7 [1]): 0.89 µM
Structure (SMILES): COc1c(-c2ccc3c(c2)OCO3)c(=O)oc2cc3oc(C(C)(C)O)cc3c(OC)c12

IC50 (Macrophage): 2.46 µM
Structure (SMILES): COc1cc2occ(-c3ccc(O)cc3)c(=O)c2c(OC)c1CC=C(C)C

IC50 (BV-2 [8]): 11.3 µM
Structure (SMILES): COc1c(-c2ccccc2)oc2c3c(ccc2c1=O)OC(C)(C)[C@H](O)C3

IC50 (BV-2 [8]): 2.88 µM
Structure (SMILES): CC(C)=CCc1cc(-c2oc3cc(O)cc(O)c3c(=O)c2O)ccc1O [ISOLICOFLAVONOL]

IC50 (Macrophage): 60 µM
Structure (SMILES): COc1c(O)cc2oc(-c3ccc(O)c(O)c3)cc(=O)c2c1O [EUPAFOLIN]

IC50 (BV-2 [8]): 11.3 µM
Structure (SMILES): COc1cc2oc(-c3ccc4c(c3)OCO4)c(OC)c(=O)c2cc1OC

IC50 (RAW264.7 [9]): 6.1 µg/mL
Structure (SMILES): O=C1CC(c2ccc(O)cc2O)Oc2cc(O)cc(O)c21 (stereo unspecified) [STEPPOGENIN]

IC50 (B16-F10): 1.3 µM
IC50 (THP-1): 2.4 µM
Structure (SMILES): COc1ccc2oc(-c3ccc(OC)c(OC)c3)cc(=O)c2c1

IC50 (BV-2 [10]): 28.3 µM
Structure (SMILES): COc1ccc(-c2cc3cc(O)c(O)cc3oc2=O)c(OC)c1OC

IC50 (Neutrophil [11]): ≤ 12.5 µM
Structure (SMILES): COc1cc(O)c2c(=O)cc(-c3cc(OC)c(OC/C=C(\C)CCC=C(C)C)c(OC)c3)oc2c1

IC50 (Macrophage): 6.72 µM
Structure (SMILES): COc1cc(-c2coc3cc(O)c(CC=C(C)C)c(O)c3c2=O)c(O)cc1O

IC50 (BV-2 [4]): 26.1 µM
Structure (SMILES): Oc1cc(O)c2c(c1)O[C@H](c1ccc(O)c(O)c1)[C@@H](O)C2 [CIANIDANOL]

IC50 (BV-2 [8]): 11.3 µM
Structure (SMILES): COc1c(-c2ccc3c(c2)OCO3)oc2c(ccc3oc(C(C)(C)O)cc32)c1=O

IC50 (RAW264.7 [3]): 21.8 µM
Structure (SMILES): COc1ccc2c(c1)O[C@H](c1ccc(O)cc1O)CC2

Structure (SMILES): COc1c2c(cc3oc(-c4ccccc4)cc(=O)c13)OCO2
IC50 (J774.A1 [5]): 0.22 µM
IC50 (J774.A1 [6]): 6.4 µM

IC50 (BV-2 [12]): 4.2 µM
Structure (SMILES): COc1cc(O)c2c(=O)c(OC)c(-c3ccc(O)c(O)c3)oc2c1

IC50 (BV-2 [12]): 11.1 µM
Structure (SMILES): COc1ccc(-c2oc3cc(O)cc(O)c3c(=O)c2OC)cc1O

Structure (SMILES): O=C1c2c(O)cc(O)cc2O[C@H](c2ccc(O)c(O)c2)[C@H]1O [(+)-TAXIFOLIN]
Activity (Mus musculus [13]): 12%

IC50 (RAW264.7 [9]): 20 µM
Structure (SMILES): Cc1c(O)c(C)c2c(c1O)C(=O)C[C@@H](c1ccc(O)c(O)c1)O2

IC50 (Macrophage): 5.36 µM
Structure (SMILES): COc1cc(-c2coc3cc(O)c(CC=C(C)C)c(O)c3c2=O)c(OC)cc1O [VIRIDIFLORIN]

IC50 (BV-2 [8]): 6.88 µM
Structure (SMILES): COc1c(-c2ccc(O)c(O)c2)oc2c(CC=C(C)C)c3c(c(O)c2c1=O)C=CC(C)(C)O3

IC50 (RAW264.7 [9]): 9.73 µM
Structure (SMILES): Cc1c(O)c2c(c(C(=O)C(C)C)c1O)OC(c1ccccc1)CC2=O (stereo unspecified)

IC50 (Neutrophil [14]): 1.9 µM
IC50 (Neutrophil [15]): 2.2 µM
Structure (SMILES): CC1(C)CCC[C@@]2(C)Oc3c(ccc4oc(-c5ccc(O)c(O)c5)cc(=O)c34)C[C@@]12C

Structure (SMILES): O=C1C[C@@H](c2ccccc2)Oc2cc(O)cc(O)c21 [PINOCEMBRIN]
Activity (Mus musculus [16]): 67.4%

IC50 (BV-2 [8]): 11.3 µM
Structure (SMILES): CC(=O)O[C@@H]1c2c(ccc3c(=O)c(O)c(-c4ccccc4)oc23)OC(C)(C)[C@@H]1OC(C)=O
Activity (Mus musculus [13]): 12.28%

IC50 (RAW264.7 [1]): 0.89 µM
Structure (SMILES): COc1ccc(-c2c(OC)c3c(OC)c4cc(C(C)(C)O)oc4cc3oc2=O)cc1
